Reference: patent US20140066519A1, “USE OF XANTHOHUMOL AND/OR ISOXANTHOHUMOL AS AN AGENT FOR PREVENTING AND/OR COMBATING LIVER DISEASES” (FLAXAN GMBH & CO. KG, priority 2006, published 2014)

Columns and labels:
[1] = tested on: liver cells infected with hepatitis C (HUH7 HCV replicon); assay: efficacy on liver cells infected with hepatitis C vs non-infected liver cells (FIGS. 2 and 3); type: cell-based
Description: Thus, use of the invention allows a targeted therapy for reduction or elimination of liver cells infected with the virus.

[2] = tested on: liver cells; assay: in vitro tests of fat accumulation (steatosis) in liver cells; type: cell-based
Description: Another effective method of preventing NASH 102 can be performed by inhibiting inflammation 108 of the liver even when eating a high fat diet. Another effective method of preventing NASH 102 can be performed by inhibiting fibrosis 110 of the liver even when eating a high fat diet. […] Inhibition of fat accumulation, inflammation, and/or fibrosis can also be an effective treatment for slowing down or preventing further progression of the liver disease state (including NASH). […] Inhibition of the reception of fatty acids into liver cells was determined in vitro tests and in vivo experiments.

[3] = tested on: proinflammatory cytokine tumor necrosis factor (TNF) mRNA; assay: hepatic TNF mRNA expression in high fat diet mouse study (FIG. 16); type: in vivo; conditions: 500 mg/kgBW, 20 weeks
Description: (§1) In vivo studies correlate with the in vitro studies. FIGS. 13-18 show comparative graphs of in vivo experimental data showing the effectiveness of xanthohumol when eating a high fat diet. The experiments involved using male C57BL/6N mice purchased from Charles River Laboratories (Sulzfeld, Germany). After two weeks of acclimatization, the mice were fed either standard diet (CTR), standard diet with xanthohumol (XN), high fat diet without providing xanthohumol (HFD), or high fat diet and xanthohumol (HFD+XN). High fat diet in the experiments included a NASH-inducing diet which includes sucrose, cholesterol, and fats rich in saturated fatty acids. In detail, the high fat diet included pork lard (15%), beef tallow (15%), palmitic acid (4%), stearic acid (4%), cholesterol (0.2%), and sucrose (30%). The feeding lasted for 20 weeks. Each experimental group had six mice. The XN and HFD+XN mice were provided with 500 mg of xanthohumol per kg of body weight (kgBW).
The TNF measurement is an indicator of inflammation in the liver. The mice that ate high fat diet (HFD) had the highest level of TNF mRNA. […] The reduction was by more than 50% of the HFD mice, such that the TNF mRNA of the HFD+XN mice had nearly the same TNF mRNA level as the control mice (CTR). […]

[4] = tested on: Collagen Type I (Coll-I) mRNA; assay: hepatic Coll-I mRNA expression in high fat diet mouse study (FIG. 17); type: in vivo; conditions: 500 mg/kgBW, 20 weeks
Description: as §1
(§2) FIGS. 17 and 18 show charts of the detected measurement of hepatic mRNA expressions of Collagen Type I (Coll-I) and profibrogenic factor tissue inhibitor of metalloproteinases 1 (TIMP-1), respectively, of the mice from the experiments (*: p<0.05; normalized so that CTR is set to 1). These methodologies are established markers detecting hepatic fibrosis (e.g., fibrosis of the liver). […]

[5] = tested on: tissue inhibitor of metalloproteinases 1 (TIMP-1) mRNA; assay: hepatic TIMP-1 mRNA expression in high fat diet mouse study (FIG. 18); type: in vivo; conditions: 500 mg/kgBW, 20 weeks
Description: as §1, §2

[6] = tested on: hepatic stellate cells; assay: transformation of quiescent hepatic stellate cells to activated hepatic stellate cells (FIGS. 6 and 7); type: cell-based; conditions: hepatic stellate cell activation, increasing dosage of xanthohumol
Description: FIGS. 6 and 7 illustrate the effect of addition of xanthohumol for the prevention of transformation of the body's own physiologically “quiescent” (non-activated) hepatic stellate cells to activated hepatic stellate cells.
FIGS. 6 and 7 illustrate the effect of addition of xanthohumol for the prevention of transformation of the body's own, physiologically “quiescent” (non-activated) hepatic stellate cells to activated hepatic stellate cells, which are responsible for scarring of the liver in cirrhosis of the liver.

[7] = tested on: activated hepatic stellate cells; assay: destruction (LDH) of activated hepatic stellate cells (FIG. 8); type: cell-based; conditions: increasing dosage of xanthohumol
[8] = tested on: liver cancer cells (HepG2); assay: growth of liver cancer cells (HepG2) over time as a function of xanthohumol dosage (FIG. 5); type: cell-based; conditions: HepG2, increasing concentrations of xanthohumol, pure form (>98%)
[9] = tested on: male C57BL/6N mice; assay: high fat diet (NASH-inducing diet) feeding study in mice, 20 weeks (FIGS. 13-15); type: in vivo; conditions: 500 mg/kgBW
Description: as §1

[10] = standard diet with xanthohumol (XN), mice
[11] = standard diet with xanthohumol (XN)

With `COc1cc(O)c(CC=C(C)C)c(O)c1C(=O)/C=C/c1ccc(O)cc1` [xanthohumol] the “destruction of liver cells affected by the virus vs healthy liver cells” value ([1]; healthy liver cells left undamaged) was “selective destruction”, the “replication of the virus” value ([1]; hepatitis B and C viral damage to the liver) was “inhibit replication of the virus” and the “viability of the liver cells” value ([2]; in vitro) was “does not affect the viability”. For the same compound, the “reception of fatty acids into liver cells (formation of steatosis)” value ([2]; in vitro tests and in vivo experiments) was “directly inhibits”, the “fatty degeneration of liver cells” value ([2]; in vitro, increased amount of xanthohumol) was “lessens fatty degeneration” and the “reduction of TNF mRNA compared to HFD mice” value ([3]; HFD+XN) was “more than 50%”. For the same compound, the “TNF mRNA level” value [3, 10] was “lowest detected levels”, the “hepatic Coll-I mRNA compared to HFD mice” value ([4]; HFD+XN) was “substantial reductions” and the “hepatic Coll-I mRNA level” value [4, 10] was “about the same as the control mice”. For the same compound, the “hepatic TIMP-1 mRNA compared to HFD mice” value ([5]; HFD+XN) was “substantial reductions”, the “hepatic TIMP-1 mRNA level” value [5, 10] was “about the same as the control mice” and the “formation of scar tissue” value [6] was “increasingly suppressed”. The “destruction (LDH) of activated hepatic stellate cells” value [7] was “increased effect of destruction”, the “growth of the cancer cells” value [8] was “progressively inhibited” and the “reduction of ALT level compared to HFD mice” value ([9]; HFD+XN) was ~50%. The “reduction of hepatic TG (mg(TG)/mg(protein)) compared to high fat diet without xanthohumol” value ([9]; HFD+XN) was “more than 50%”, the ALT level [9, 11] was “lowest detected levels” and the “hepatic TG (mg(TG)/mg(protein)) level” value [9, 11] was “lowest detected levels”.
